Reference: patent publication US8940497B2, “Enzyme regulating ether lipid signaling pathways” (The Scripps Research Institute, priority 2006, dated 2015)

Tests used:
shKIAA1363 cells = test: Cell migration assay (Transwell) with shKIAA1363 cells; assay type: cell-based, human; conditions: concentrations up to 1 μM, 18 h
Experimental: Migration assays were performed in Transwell chambers with […] pore-sized membranes coated with 10 μg/ml collagen overnight at 4° C. (Corning). Twenty-four hours before the start of the migration assay, cancer cell lines were plated at concentration of 2.25×10^6 cells per 10 cm dish. At the start of the migration assay, cells were harvested by washing two times with PBS and then serum starved in medium containing 0.05% BSA for 4 hours. Serum starved cells were trypsinized, spun at 1400 rpm for 3 minutes, resuspended, and counted. Cells were diluted to a density of 100,000 cells/ml in medium contain 0.05% BSA, and then 250 μl were placed in the upper chamber of the transwells. Either DMSO, alkyl LPA (10 nM), alkyl LPC (10-1000 nM), or MAGE (10-1000 nM) in medium containing 0.05% BSA was added in the lower chamber, and cells were allowed to migrate for 18 h. The filters were then fixed and stained with Diff-Quik (Dade Behring). Cells that had not migrated through the chamber were removed with a cotton ball. The cells which migrated were counted at a magnification of 40× and from each migration chamber 6 fields were independently counted.
The decrease in tumorigenic potential of shKIAA1363 cells was not associated with a change in proliferation potential in vitro (FIG. 11). shKIAA1363 cells were, however, impaired in their in vitro migration capacity compared to control cells (FIG. 9B). […]

MUM-2B melanoma cells = test: LC-MS MAGE lipid levels in inhibitor-treated melanoma cells; assay type: cell-based, human; conditions: compared to DMSO controls
Experimental: (§1) The following LC-MS conditions were used for analysis of cancer cell metabolomes. Cell pellets were harvested by scraping, isolated by centrifugation at 1,400×g, and dounce-homogenized in 4 mL of a 2:1:1 mixture of chloroform:methanol:Tris buffer (50 mM Tris*HCl, pH 8.0). Samples that were analyzed by targeted LC-MS were homogenized in the presence of the following synthetic standards: C15:0 MAG (50 pmol), C17:0 LPA (50 pmol), and 13C-C16:0 MAGE (25 pmol). Organic and aqueous layers were separated by centrifugation at 1,260×g for 5 min. The organic layer was then removed, dried under a stream of N2, and re-solubilized in 100 μL of chloroform, of which 30 μL was analyzed by LC-MS. Extraction of LPA was performed by acidifying the remaining aqueous layer to a final concentration of 5% formic acid, followed by the addition of 2 mL of chloroform. The mixture was vortexed, the organic layer removed, concentrated to dryness, and dissolved in 100 μL of chloroform, of which 30 μL was analyzed by LC-MS.
(§2) LC-MS analysis was performed using an Agilent 1100 LC-MSD SL instrument. […] Mobile phase A was composed of a 95:5 ratio of water:methanol and mobile phase B consisted of 2-propanol, methanol, and water in a 60:35:5 ratio. Solvent modifiers such as 0.1% formic acid and 0.1% ammonium hydroxide were used to assist ion formation as well as improve the LC resolution in both positive and negative ionization modes respectively. The flow rate for each run started at 0.1 mL/min for 5 min, to alleviate backpressure associated with injecting chloroform. The gradient started at 0% B and increased linearly to 100% B over the course of 40 min with a flow rate of 0.4 mL/min, followed by an isocratic gradient of 100% B for 7 min before equilibrating for 8 min at 0% B with a flow rate of 0.5 mL/min.
(§3) MS analysis was performed with an electrospray ionization (ESI) source. […] Differentially expressed metabolites between sample pairs were identified using the XCMS analyte profiling software (http://metlin/download) that aligns mass peaks from two LC-MS traces and quantifies the relative intensities of global metabolites (5). Significant inhibitor-sensitive peak changes were confirmed by manual quantification using the area under the peak normalized to total ion current. […] Peaks were quantified by measuring the area under the peak and normalized to an internal standard (C15:0 MAG) or endogenous lipid (palmitic acid). […]
(§4) Human ovarian cancer cell lines were obtained form the National Cancer Institute's Developmental Therapeutics Program. […] At approximately 80% confluency, cells were trypsinized, counted with the aid of a hemocytometer, and 2.5×10^6 cells were plated in 6 cm dishes. […] After incubation for 4 h the cells were harvested and analyzed by ABPP or LC-MS. […]

C8161 melanoma cells = test: as above; assay type: cell-based, human; conditions: compared to DMSO controls
Experimental: as §1, §2, §3, §4

SKOV-3 cells = test: Targeted LC-MS analysis of lipid levels in inhibitor-treated cells; assay type: cell-based, human; conditions: compared to DMSO controls
Experimental: as §1, §2
MS analysis was performed with an electrospray ionization (ESI) source. The capillary voltage was set to 3.0 kV and the fragmentor voltage to 100V. The drying gas temperature was 350° C., the drying gas flow rate was 10 L/min, and the nebulizer pressure was 35 psi. Untargeted data was collected using a mass range of 200-1000 Da and exported as common data format (.CDF) files for computational analysis. Differentially expressed metabolites between sample pairs were identified using the XCMS analyte profiling software (http://metlin/download) that aligns mass peaks from two LC-MS traces and quantifies the relative intensities of global metabolites (5). Significant inhibitor-sensitive peak changes were confirmed by manual quantification using the area under the peak normalized to total ion current. Targeted LC-MS measurements were made using selected ion monitoring (SIM). Peaks were quantified by measuring the area under the peak and normalized to an internal standard (C15:0 MAG) or endogenous lipid (palmitic acid). Absolute MAGE levels were estimated by comparison to a 13C-MAGE standard.
Human ovarian cancer cell lines were obtained form the National Cancer Institute's Developmental Therapeutics Program. The melanoma lines C8161 and MUM-2B were obtained form Mary Hendrix. Cells were maintained in RPMI medium 1640 with 10% (v/v) fetal calf serum at 37° C. in a humidified atmosphere of 5% CO2/95% air. At approximately 80% confluency, cells were trypsinized, counted with the aid of a hemocytometer, and 2.5×10^6 cells were plated in 6 cm dishes. 20 h after plating cells were washed twice with PBS and supplemented with serum free RPMI containing 0.5% BSA (Sigma)(BSA-RPMI) with AS115 (0.01-10 μM) or vehicle (DMSO) at 0.1%. After incubation for 4 h the cells were harvested and analyzed by ABPP or LC-MS.
By extension, the m/z 345 and 347 metabolites were interpreted to represent the C18:1 and C18:0 MAGEs, respectively. […] MAGE levels were measured by targeted LC-MS analysis of SKOV-3 cells treated with AS115 (5 μM) or DMSO for 4 h using a 13C-C16:0 MAGE internal standard. Values are represented as pmol/10^6 cells. […]

[1] = system: background 2-thioacetyl MAGE hydrolyzing activity in membrane proteomes; test: Background 2-thioacetyl MAGE hydrolyzing activity in membrane proteomes; assay type: biochemical; conditions: FIG. 14
Experimental: KIAA1363-transfected cell lines were used for substrate-based enzyme activity assays. Membrane proteomes were adjusted to 0.5 mg/ml in 50 mM tris pH 7.4 buffer containing 5 mM CHAPS detergent. Immediately prior to the assay, 5,5′-dithiobis-(2-nitrobenzoic acid) (DTNB, Sigma) was added at 0.5 mM to the membrane proteome to prepare the Assay Buffer. For analysis of inhibitors, 1 ul of a 50× inhibitor solution in DMSO was added to 48 ul of Assay Buffer and preincubated for 20 min at RT. The substrate 2-thioacetyl MAGE (Cayman Chemical) was prepared by evaporating off the original solvent under nitrogen and redissolving the residue in DMSO. 1 ul of 5 mM 2-thioacetyl MAGE stock is added to each assay well to begin the assay. Absorbance is determined at A405 nm.
The background 2-thioacetyl MAGE hydrolyzing activity in membrane proteomes that is not inhibited by AS-115 is inhibited by the broad serine protease inhibitor PMSF (FIG. 14). The IC50 of AS-115 was measured using the 2-thioacetyl MAGE substrate-based assay with Flag-KIAA1363/293T cell membrane proteome (FIG. 15).

monoalkylglycerol ether [MAGE]
Effect on cancer cell migration (shKIAA1363 cells): Neither MAGE nor alkyl-LPC impacted cancer cell migration

NC(=O)c1cccc(-c2cccc(OC(=O)NC3CCCCC3)c2)c1 [URB597, reference compound]
Levels of MAGE lipids (MUM-2B melanoma cells): did not affect | Levels of MAGE lipids (C8161 melanoma cells): did not affect | Levels of MAGE lipids (SKOV-3 cells): did not affect

O=S(=O)(F)Cc1ccccc1 [PMSF, reference compound]
Background 2-thioacetyl MAGE hydrolyzing activity [1]: inhibited
